Data as given in the supplement of paper PMC10307832.

What was measured:
Assay in all cases: relative viability (nuclei count vs DMSO), 5 days (fraction); higher = more cells survive
NCI-H596 = tested on: NCI-H596
Method in brief: (§1)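 Medians of duplicate plates are given as relative viability. That measure is the nuclei count in treated wells divided by the count in vehicle wells. Counts were taken on 4× images of lung cancer cell lines in 1536-well plates, 5 days after pin-tool dosing the day after seeding with one drug alone or a fixed anchor-drug dose plus five library-drug doses (not always all listed) in √10 steps.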

NCI-H1623 = tested on: NCI-H1623
Method in brief: as §1

NCI-H1355 = tested on: NCI-H1355
Method in brief: as §1

NCI-H322M = tested on: NCI-H322M
Method in brief: as §1

A549 = tested on: A549
Method in brief: as §1

NCI-H23 = tested on: NCI-H23
Method in brief: as §1

LCLC-97TM1 = tested on: LCLC-97TM1
Method in brief: as §1

UMC-11 = tested on: UMC-11
Method in brief: as §1

NCI-H1993 = tested on: NCI-H1993
Method in brief: as §1

NCI-H1299 = tested on: NCI-H1299
Method in brief: as §1

NCI-H1703 = tested on: NCI-H1703
Method in brief: as §1

EBC-1 = tested on: EBC-1
Method in brief: as §1

Calu-6 = tested on: Calu-6
Method in brief: as §1

IA-LM = tested on: IA-LM
Method in brief: as §1

Structure (SMILES): O=c1cc(N2CCOCC2)oc2c(-c3cccc4c3sc3ccccc34)cccc12 + N=C(N)NC(=N)NCCc1ccccc1 [Phenformin] (partner 250 µM)
- relative viability (NCI-H596; first compound 0.01 µM): 0.73
- relative viability (NCI-H596; first compound 0.03162 µM): 0.837
- relative viability (NCI-H596; first compound 0.1 µM): 0.717
- relative viability (NCI-H596; first compound 0.3162 µM): 0.743
- relative viability (NCI-H596; first compound 1 µM): 0.76
- relative viability (NCI-H1623; first compound 0.01 µM): 0.565
- relative viability (NCI-H1623; first compound 0.03162 µM): 0.619
- relative viability (NCI-H1623; first compound 0.1 µM): 0.324
- relative viability (NCI-H1623; first compound 0.3162 µM): 0.585
- relative viability (NCI-H1623; first compound 1 µM): 0.545
- relative viability (NCI-H1355; first compound 0.01 µM): 0.45
- relative viability (NCI-H1355; first compound 0.03162 µM): 0.446
- relative viability (NCI-H1355; first compound 0.1 µM): 0.316
- relative viability (NCI-H1355; first compound 0.3162 µM): 0.447
- relative viability (NCI-H1355; first compound 1 µM): 0.42
- relative viability (NCI-H322M; first compound 0.01 µM): 0.75
- relative viability (NCI-H322M; first compound 0.03162 µM): 0.781
- relative viability (NCI-H322M; first compound 0.1 µM): 0.395
- relative viability (NCI-H322M; first compound 0.3162 µM): 0.814
- relative viability (NCI-H322M; first compound 1 µM): 0.668
- relative viability (A549; first compound 0.01 µM): 0.201
- relative viability (A549; first compound 0.03162 µM): 0.143
- relative viability (A549; first compound 0.1 µM): 0.0905
- relative viability (A549; first compound 0.3162 µM): 0.167
- relative viability (A549; first compound 1 µM): 0.183
- relative viability (NCI-H23; first compound 0.01 µM): 0.83
- relative viability (NCI-H23; first compound 0.03162 µM): 0.801
- relative viability (NCI-H23; first compound 0.3162 µM): 0.792
- relative viability (NCI-H23; first compound 1 µM): 0.806
- relative viability (LCLC-97TM1; first compound 0.01 µM): 0.43
- relative viability (LCLC-97TM1; first compound 0.03162 µM): 0.458
- relative viability (LCLC-97TM1; first compound 0.1 µM): 0.431
- relative viability (LCLC-97TM1; first compound 0.3162 µM): 0.378
- relative viability (LCLC-97TM1; first compound 1 µM): 0.449
- relative viability (UMC-11; first compound 0.01 µM): 0.352
- relative viability (UMC-11; first compound 0.03162 µM): 0.316
- relative viability (UMC-11; first compound 0.1 µM): 0.353
- relative viability (UMC-11; first compound 0.3162 µM): 0.36
- relative viability (UMC-11; first compound 1 µM): 0.336
- relative viability (NCI-H1993; first compound 0.01 µM): 0.61
- relative viability (NCI-H1993; first compound 0.03162 µM): 0.508
- relative viability (NCI-H1993; first compound 0.1 µM): 0.506
- relative viability (NCI-H1993; first compound 0.3162 µM): 0.483
- relative viability (NCI-H1993; first compound 1 µM): 0.556

Structure (SMILES): O=c1cc(N2CCOCC2)oc2c(-c3cccc4c3sc3ccccc34)cccc12 + COc1cc2c(Oc3ccc(NC(=O)C4(C(=O)Nc5ccc(F)cc5)CC4)cc3F)ccnc2cc1OCCCN1CCOCC1 [Foretinib] (partner 0.25 µM)
- relative viability (NCI-H596; first compound 0.01 µM): 0.838
- relative viability (NCI-H596; first compound 0.03162 µM): 0.946
- relative viability (NCI-H596; first compound 0.1 µM): 0.821
- relative viability (NCI-H596; first compound 0.3162 µM): 0.96
- relative viability (NCI-H596; first compound 1 µM): 0.918
- relative viability (NCI-H1299; first compound 0.01 µM): 1.04
- relative viability (NCI-H1299; first compound 0.03162 µM): 1.11
- relative viability (NCI-H1299; first compound 0.1 µM): 1.08
- relative viability (NCI-H1299; first compound 0.3162 µM): 1.13
- relative viability (NCI-H1299; first compound 1 µM): 1.04
- relative viability (NCI-H1623; first compound 0.01 µM): 0.84
- relative viability (NCI-H1623; first compound 0.03162 µM): 0.9
- relative viability (NCI-H1623; first compound 0.1 µM): 0.559
- relative viability (NCI-H1623; first compound 0.3162 µM): 0.849
- relative viability (NCI-H1623; first compound 1 µM): 0.862
- relative viability (NCI-H1355; first compound 0.01 µM): 0.962
- relative viability (NCI-H1355; first compound 0.03162 µM): 1.01
- relative viability (NCI-H1355; first compound 0.1 µM): 0.952
- relative viability (NCI-H1355; first compound 0.3162 µM): 0.986
- relative viability (NCI-H1355; first compound 1 µM): 0.917
- relative viability (NCI-H322M; first compound 0.01 µM): 0.91
- relative viability (NCI-H322M; first compound 0.03162 µM): 0.903
- relative viability (NCI-H322M; first compound 0.1 µM): 0.888
- relative viability (NCI-H322M; first compound 0.3162 µM): 0.917
- relative viability (NCI-H322M; first compound 1 µM): 0.849
- relative viability (NCI-H1703; first compound 0.01 µM): 0.333
- relative viability (NCI-H1703; first compound 0.03162 µM): 0.314
- relative viability (NCI-H1703; first compound 0.1 µM): 0.352
- relative viability (NCI-H1703; first compound 0.3162 µM): 0.371
- relative viability (NCI-H1703; first compound 1 µM): 0.296
- relative viability (EBC-1; first compound 0.01 µM): 0.0963
- relative viability (EBC-1; first compound 0.03162 µM): 0.0939
- relative viability (EBC-1; first compound 0.1 µM): 0.0965
- relative viability (EBC-1; first compound 0.3162 µM): 0.128
- relative viability (EBC-1; first compound 1 µM): 0.102
- relative viability (A549; first compound 0.01 µM): 0.936
- relative viability (A549; first compound 0.03162 µM): 1
- relative viability (A549; first compound 0.1 µM): 0.99
- relative viability (A549; first compound 0.3162 µM): 0.912
- relative viability (A549; first compound 1 µM): 0.994
- relative viability (Calu-6; first compound 0.01 µM): 0.932
- relative viability (Calu-6; first compound 0.03162 µM): 0.895
- relative viability (Calu-6; first compound 0.1 µM): 0.891
- relative viability (Calu-6; first compound 0.3162 µM): 0.888
- relative viability (Calu-6; first compound 1 µM): 0.839
- relative viability (NCI-H23; first compound 0.01 µM): 1.02
- relative viability (NCI-H23; first compound 0.03162 µM): 1.01
- relative viability (NCI-H23; first compound 0.3162 µM): 1.06
- relative viability (NCI-H23; first compound 1 µM): 0.919
- relative viability (IA-LM; first compound 0.01 µM): 1.1
- relative viability (IA-LM; first compound 0.03162 µM): 1.11
- relative viability (IA-LM; first compound 0.1 µM): 1.23
- relative viability (IA-LM; first compound 0.3162 µM): 1.06
- relative viability (IA-LM; first compound 1 µM): 1.25
- relative viability (LCLC-97TM1; first compound 0.01 µM): 0.905
- relative viability (LCLC-97TM1; first compound 0.03162 µM): 0.926
- relative viability (LCLC-97TM1; first compound 0.1 µM): 0.937
- relative viability (LCLC-97TM1; first compound 0.3162 µM): 0.897
- relative viability (LCLC-97TM1; first compound 1 µM): 0.92
- relative viability (UMC-11; first compound 0.01 µM): 1
- relative viability (UMC-11; first compound 0.03162 µM): 1.08
- relative viability (UMC-11; first compound 0.1 µM): 1.03
- relative viability (UMC-11; first compound 0.3162 µM): 1.01
- relative viability (UMC-11; first compound 1 µM): 0.91
- relative viability (NCI-H1993; first compound 0.01 µM): 0.681
- relative viability (NCI-H1993; first compound 0.03162 µM): 0.845
- relative viability (NCI-H1993; first compound 0.1 µM): 0.878
- relative viability (NCI-H1993; first compound 0.3162 µM): 0.765
- relative viability (NCI-H1993; first compound 1 µM): 0.748
